Measurements reported in US11753395B2 (Kinnate Biopharma Inc., priority 2021, dated 2023).

How the values were obtained:
[1] = biological target: T1, MET (Homo sapiens, UniProt P08581); experiment: MET Mobility Shift Assay; details: biochemical assay IC50; 100 μM ATP, 60 minute kinase reaction
T1 construct: purchased Carna Biosciences 08-151
Procedure: (§1) Small molecule inhibition of MET kinase activity was evaluated using a fluorescence-based microfluidic mobility shift assay. MET catalyzes the production of ADP from ATP during phosphoryl transfer to the substrate peptide, FLPeptide30 (5-FAM-KKKKEEIYFFF-CONH2) (Perkin Elmer, 760430). MET enzme (Carna Biosciences, 08-151) at 0.625 nM was prepared with 10 mM MgCl2 and 1.5 μM substrate peptide in a buffer containing 50 mM HEPES, 1 mM EGTA, 0.01% Brij-35, 0.05% BSA, and 2 mM DTT and pre-incubated at room temperature for 30 min prior to the start of the reaction. 100 μM ATP was added to start the reaction. The mobility shift assay electrophoretically separates the fluorescently labeled peptides (substrate and phosphorylated product) following the 60 minute kinase reaction. The reaction was terminated by addition of 0.5 M EDTA. Both substrate and product were measured and the ratio of these values used to generate % conversion of substrate to product by the LabChip EZ reader (Perkin Elmer). ICso values were calculated using the inhibition of conversion ratio using Dotmatics Knowledge Solutions Studies curve fitting environment (Dotmatics, Bishops Stortford, UK, CM23) and are presented in Table 2.

[2] = biological target: T2, MET D1228N (Homo sapiens, UniProt P08581, D1228N); experiment: MET D1228N Mobility Shift Assay; details: biochemical assay IC50; 100 μM ATP, 60 minute kinase reaction
T2 construct: purchased Signalchem M52-12IG
Procedure: as §1, with “MET D1228N” for “MET”, “a fluorescence -based” for “a fluorescence-based”, “FLPeptide30 (5-FAM-KKKKEEIYFFF -CONH2)” for “FLPeptide30 (5-FAM-KKKKEEIYFFF-CONH2)”, “MET D1228N enzyme (Signalchem, M52-12IG)” for “MET enzme (Carna Biosciences, 08-151)”, “at 0.313” for “at 0.625”

[3] = biological target: T3, Ba/F3-TPR-MET cells (Homo sapiens, UniProt P08581); experiment: CellTiter-Glo Cell Viability Assay, Ba/F3-TPR-MET; assay type: cell-based; details: 72 hours
T3 construct: fused on or other part: P12270 (Nucleoprotein TPR)
Procedure: (§2) Ba/F3-TPR-MET and Ba/F3-TPR-MET-D1228N cells were seeded at 3000 cells per well in a 96 well plate in 90 μL growth media and allowed to incubate overnight at 37° C. with 5% CO2. The following day, compounds were serially diluted from a 10 mM top dose for a 9-point 3-fold dilution curve in DMSO. Following a 100-fold dilution in growth media, a further 10-fold dilution was made into the cell plate for a final volume of 100 μL and 0.1% DMSO. Compounds and cells were incubated together for 72 hours at 37° C. with 5% CO2. The CellTiter-Glo® 2.0 Assay determines the number of viable cells in culture by quantifying ATP, which indicates the presence of metabolically active cells. Luminescence readout is directly proportional to the number of viable cells in culture. CellTiter-Glo reagent (Promega, G9243) and cell plates were allowed to equilibrate to room temperature for at least 15 min, then 100 μL of CellTiter-Glo was added to each well for a 1:1 ratio of reagent to media. Samples were placed on a shaker for 2 min prior to a 30 min incubation at room temperature protected from light. Luminescence was read on a Perkin Elmer Envision plate reader 2105 and used to calculate ICso values within the Dotmatics Knowledge Solutions Studies curve fitting environment (Dotmatics, Bishops Stortford, UK, CM23) and are presented in Table 2.

[4] = biological target: T4, Ba/F3-TPR-MET-D1228N cells (Homo sapiens, UniProt P08581, D1228N, cells depend on it); experiment: CellTiter-Glo Cell Viability Assay, Ba/F3-TPR-MET-D1228N; assay type: cell-based; details: 72 hours
T4 construct: fused on or other part: P12270 (Nucleoprotein TPR)
Procedure: as §2

T1 sequence (P08581 25-1390): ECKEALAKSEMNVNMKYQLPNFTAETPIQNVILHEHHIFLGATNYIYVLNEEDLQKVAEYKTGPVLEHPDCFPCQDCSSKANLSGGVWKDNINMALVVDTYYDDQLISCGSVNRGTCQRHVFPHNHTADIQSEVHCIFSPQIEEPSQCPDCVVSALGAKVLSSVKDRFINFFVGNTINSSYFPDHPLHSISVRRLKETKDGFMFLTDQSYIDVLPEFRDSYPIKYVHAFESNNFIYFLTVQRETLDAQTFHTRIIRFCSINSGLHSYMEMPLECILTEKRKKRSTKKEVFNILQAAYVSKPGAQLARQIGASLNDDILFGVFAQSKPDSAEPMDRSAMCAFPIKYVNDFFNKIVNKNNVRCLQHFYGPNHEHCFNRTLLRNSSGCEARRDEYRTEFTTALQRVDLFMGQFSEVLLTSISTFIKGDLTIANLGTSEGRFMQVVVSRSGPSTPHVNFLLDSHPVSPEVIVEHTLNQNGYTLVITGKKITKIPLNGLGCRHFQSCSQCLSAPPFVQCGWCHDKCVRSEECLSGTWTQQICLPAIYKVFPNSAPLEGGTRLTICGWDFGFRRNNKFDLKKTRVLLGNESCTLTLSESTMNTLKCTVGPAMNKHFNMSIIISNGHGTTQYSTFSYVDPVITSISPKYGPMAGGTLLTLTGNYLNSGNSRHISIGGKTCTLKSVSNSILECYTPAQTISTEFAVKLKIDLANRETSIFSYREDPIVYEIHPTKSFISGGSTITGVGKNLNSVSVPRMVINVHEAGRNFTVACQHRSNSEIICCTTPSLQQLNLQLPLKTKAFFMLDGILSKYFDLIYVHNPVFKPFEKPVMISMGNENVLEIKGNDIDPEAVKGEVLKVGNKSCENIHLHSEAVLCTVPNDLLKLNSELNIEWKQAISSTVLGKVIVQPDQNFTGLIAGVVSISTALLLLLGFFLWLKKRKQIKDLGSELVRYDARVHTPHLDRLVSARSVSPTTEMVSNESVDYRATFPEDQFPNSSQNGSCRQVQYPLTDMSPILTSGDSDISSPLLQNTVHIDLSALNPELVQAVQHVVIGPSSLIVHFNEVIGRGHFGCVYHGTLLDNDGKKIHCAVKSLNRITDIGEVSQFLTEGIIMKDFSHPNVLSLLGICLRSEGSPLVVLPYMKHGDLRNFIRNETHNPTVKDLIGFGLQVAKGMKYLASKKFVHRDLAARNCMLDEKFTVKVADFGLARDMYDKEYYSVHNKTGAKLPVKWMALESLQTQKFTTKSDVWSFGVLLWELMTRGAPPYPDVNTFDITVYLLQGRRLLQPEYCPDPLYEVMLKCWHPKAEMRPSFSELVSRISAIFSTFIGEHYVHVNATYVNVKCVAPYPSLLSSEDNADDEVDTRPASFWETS
T2 sequence (P08581 25-1390 D1228N): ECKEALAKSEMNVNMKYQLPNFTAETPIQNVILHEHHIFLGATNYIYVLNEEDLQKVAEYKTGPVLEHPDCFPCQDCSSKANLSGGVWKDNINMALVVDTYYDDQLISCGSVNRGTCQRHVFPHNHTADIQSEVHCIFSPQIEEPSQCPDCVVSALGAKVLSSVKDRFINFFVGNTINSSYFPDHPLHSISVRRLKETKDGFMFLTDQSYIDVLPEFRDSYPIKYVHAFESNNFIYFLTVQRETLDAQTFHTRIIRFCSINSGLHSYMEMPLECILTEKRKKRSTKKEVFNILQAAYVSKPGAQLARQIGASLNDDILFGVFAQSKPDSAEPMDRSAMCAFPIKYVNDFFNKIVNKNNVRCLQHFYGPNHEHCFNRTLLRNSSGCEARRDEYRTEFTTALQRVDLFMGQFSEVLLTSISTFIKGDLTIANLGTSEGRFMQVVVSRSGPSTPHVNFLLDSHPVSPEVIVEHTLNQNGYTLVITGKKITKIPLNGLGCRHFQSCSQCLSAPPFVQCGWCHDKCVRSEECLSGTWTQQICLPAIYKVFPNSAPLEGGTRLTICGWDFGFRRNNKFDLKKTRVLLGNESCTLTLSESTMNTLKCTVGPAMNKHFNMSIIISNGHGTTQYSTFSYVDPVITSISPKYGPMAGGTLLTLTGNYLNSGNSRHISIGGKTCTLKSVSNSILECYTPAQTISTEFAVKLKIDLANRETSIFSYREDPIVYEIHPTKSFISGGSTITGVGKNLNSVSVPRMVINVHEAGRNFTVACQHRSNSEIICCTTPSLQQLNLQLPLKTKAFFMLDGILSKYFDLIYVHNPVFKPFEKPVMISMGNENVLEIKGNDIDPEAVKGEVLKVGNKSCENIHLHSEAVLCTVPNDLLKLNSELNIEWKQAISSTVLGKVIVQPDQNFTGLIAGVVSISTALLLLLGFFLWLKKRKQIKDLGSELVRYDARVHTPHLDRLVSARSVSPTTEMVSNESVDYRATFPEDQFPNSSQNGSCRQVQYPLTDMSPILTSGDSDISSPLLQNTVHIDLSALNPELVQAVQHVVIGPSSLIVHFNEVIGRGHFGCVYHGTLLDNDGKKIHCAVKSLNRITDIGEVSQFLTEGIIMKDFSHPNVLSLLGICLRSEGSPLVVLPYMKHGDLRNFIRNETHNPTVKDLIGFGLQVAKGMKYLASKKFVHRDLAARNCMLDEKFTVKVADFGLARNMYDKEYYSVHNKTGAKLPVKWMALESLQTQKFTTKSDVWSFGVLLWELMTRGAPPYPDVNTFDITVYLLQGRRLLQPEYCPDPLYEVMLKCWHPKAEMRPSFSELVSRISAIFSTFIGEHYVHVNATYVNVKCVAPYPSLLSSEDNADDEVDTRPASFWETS
T3 sequence (P08581 whole entry, change not shown, the tested form may be a part): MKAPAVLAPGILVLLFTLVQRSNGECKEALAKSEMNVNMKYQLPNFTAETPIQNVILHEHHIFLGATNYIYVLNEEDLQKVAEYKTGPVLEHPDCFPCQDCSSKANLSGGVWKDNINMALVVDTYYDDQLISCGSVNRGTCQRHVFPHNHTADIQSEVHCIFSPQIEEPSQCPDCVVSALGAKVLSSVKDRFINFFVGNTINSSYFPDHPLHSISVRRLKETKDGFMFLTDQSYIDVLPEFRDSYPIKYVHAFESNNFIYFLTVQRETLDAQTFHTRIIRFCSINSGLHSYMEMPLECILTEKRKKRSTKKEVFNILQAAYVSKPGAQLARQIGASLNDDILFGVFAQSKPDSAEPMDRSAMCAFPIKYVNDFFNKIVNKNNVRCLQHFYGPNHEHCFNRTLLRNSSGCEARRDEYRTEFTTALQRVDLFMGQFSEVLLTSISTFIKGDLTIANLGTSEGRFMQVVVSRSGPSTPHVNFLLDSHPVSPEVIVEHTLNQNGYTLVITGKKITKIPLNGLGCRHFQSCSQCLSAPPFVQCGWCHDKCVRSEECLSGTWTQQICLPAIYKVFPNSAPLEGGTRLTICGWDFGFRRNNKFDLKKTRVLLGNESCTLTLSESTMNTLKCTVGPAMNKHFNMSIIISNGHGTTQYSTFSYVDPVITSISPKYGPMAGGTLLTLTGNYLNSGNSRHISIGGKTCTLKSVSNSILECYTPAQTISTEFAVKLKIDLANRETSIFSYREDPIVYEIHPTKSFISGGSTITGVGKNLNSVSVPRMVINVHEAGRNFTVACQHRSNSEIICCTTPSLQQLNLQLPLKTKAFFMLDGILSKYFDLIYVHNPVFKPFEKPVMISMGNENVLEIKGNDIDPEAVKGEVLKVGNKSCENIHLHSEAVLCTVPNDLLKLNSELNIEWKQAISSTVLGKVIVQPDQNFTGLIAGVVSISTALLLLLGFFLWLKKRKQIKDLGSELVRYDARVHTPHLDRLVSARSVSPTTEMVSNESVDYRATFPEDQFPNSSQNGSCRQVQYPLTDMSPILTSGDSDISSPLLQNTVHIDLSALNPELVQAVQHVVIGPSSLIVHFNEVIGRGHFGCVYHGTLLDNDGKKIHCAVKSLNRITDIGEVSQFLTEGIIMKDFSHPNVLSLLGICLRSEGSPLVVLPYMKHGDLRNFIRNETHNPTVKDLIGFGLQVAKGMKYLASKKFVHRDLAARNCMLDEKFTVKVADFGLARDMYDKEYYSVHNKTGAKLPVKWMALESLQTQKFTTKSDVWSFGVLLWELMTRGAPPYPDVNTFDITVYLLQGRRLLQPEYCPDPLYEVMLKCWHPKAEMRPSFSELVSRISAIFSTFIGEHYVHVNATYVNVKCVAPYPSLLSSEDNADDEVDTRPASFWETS

Row | SMILES | IC50 [1] | IC50 [2] | EC50 [3] | EC50 [4]
1 | CNCCOc1cc2nccc(Oc3c(F)cc(NC(=O)c4cnc(Cl)cc4OC4CC4)cc3F)c2cc1OC [Example 112, 6-chloro-4-cyclopropoxy-N-[3,5-difluoro-4-({6-methoxy-7-[2-(methylamino)ethoxy]quinolin-4-yl}oxy)phenyl]pyridine-3-carboxamide] | ≤ 100 nM | ≤ 100 nM | 100 to 1000 nM | 100 to 1000 nM
2 | CNCCCOc1cc2nccc(Oc3c(F)cc(NC(=O)c4cnccc4OC4CC4)cc3F)c2cc1OC [Example 84, 4-cyclopropoxy-N-(3,5-difluoro-4-((6-methoxy-7-(3-(methylamino)propoxy)quinolin-4-yl)oxy)phenyl)pyridine-3-carboxamide] | ≤ 100 nM | ≤ 100 nM | 100 to 1000 nM | ≤ 100 nM
3 | CNCCOc1ccc2c(Oc3c(F)cc(NC(=O)c4cnc(Cl)cc4OC4CC4)cc3F)ccnc2c1 [Example 113, 6-chloro-4-cyclopropoxy-N-[3,5-difluoro-4-({7-[2-(methylamino)ethoxy]quinolin-4-yl}oxy)phenyl]pyridine-3-carboxamide] | ≤ 100 nM | ≤ 100 nM | ≤ 100 nM | ≤ 100 nM
4 | COc1ccncc1C(=O)Nc1cc(F)c(Oc2ccnc3ccc(O[C@@H](C)CO)cc23)c(F)c1 [Example 130, (S)-N-(3,5-difluoro-4-((6-((1-hydroxypropan-2-yl)oxy)quinolin-4-yl)oxy)phenyl) -4-methoxynicotinamide] | ≤ 100 nM | ≤ 100 nM | 100 to 1000 nM | ≤ 100 nM
5 | COc1cc2c(Oc3c(F)cc(NC(=O)c4cnccc4OC4CC4)cc3F)ccnc2cc1OCCCN1CCOCC1 [Example 53, 4-cyclopropoxy-N-[3,5-difluoro-4-({6-methoxy-7-[3-(morpholin-4-yl)propoxy]quinolin-4-yl}oxy)phenyl]pyridine-3-carboxamide] | ≤ 100 nM | ≤ 100 nM | ≤ 100 nM | ≤ 100 nM
6 | CNCCOc1ccc2c(Oc3c(F)cc(NC(=O)c4cccnc4OC4CC4)cc3F)ccnc2c1 [Example 79, 2-cyclopropoxy-N-[3,5-difluoro-4-({7-[2-(methylamino)ethoxy]quinolin-4-yl}oxy)phenyl]pyridine-3-carboxamide] | ≤ 100 nM | ≤ 100 nM | 100 to 1000 nM | 100 to 1000 nM
7 | COc1cc2nccc(Oc3c(F)cc(NC(=O)c4cnccc4OC4CC4)cc3F)c2cc1OC [Example 91, 4-cyclopropoxy-N-{4-[(6,7-dimethoxyquinolin-4-yl)oxy]-3,5-difluorophenyl}pyridine-3-carboxamide] | ≤ 100 nM | ≤ 100 nM | ≤ 100 nM | ≤ 100 nM
8 | CNCCOc1cc2nccc(Oc3c(F)cc(NC(=O)c4cnccc4OCCOC)cc3F)c2cc1OC [Example 67, N-[3,5-difluoro-4-({6-methoxy-7-[2-(methylamino)ethoxy]quinolin-4-yl}oxy)phenyl]-4-(2-methoxyethoxy)pyridine-3-carboxamide] | ≤ 100 nM | ≤ 100 nM | 100 to 1000 nM | 100 to 1000 nM
9 | CNCCOc1cc2nccc(Oc3c(F)cc(NC(=O)c4cc(F)c(F)cc4OC)cc3F)c2cc1OC [Example 2, N-(3,5-difluoro-4-((6-methoxy-7-(2-(methylamino)ethoxy)quinolin-4-yl)oxy)phenyl)-4,5-difluoro-2-methoxybenzamide] | ≤ 100 nM | ≤ 100 nM | 1000 to 10000 nM | 100 to 1000 nM
10 | COc1cc2nccc(Oc3c(F)cc(NC(=O)c4cnccc4OC4CC4)c(F)c3F)c2cc1OC [Example 92, 4-cyclopropoxy-N-{4-[(6,7-dimethoxyquinolin-4-yl)oxy]-2,3,5-trifluorophenyl}pyridine-3-carboxamide] | ≤ 100 nM | ≤ 100 nM | 100 to 1000 nM | 100 to 1000 nM
11 | CNCCOc1ccc2c(Oc3c(F)cc(NC(=O)c4cnc(F)cc4OC4CC4)cc3F)ccnc2c1 [Example 109, 4-cyclopropoxy-N-(3,5-difluoro-4-((7-(2-(methylamino)ethoxy)quinolin-4-yl)oxy)phenyl)-6-fluoropyridine-3-carboxamide] | ≤ 100 nM | ≤ 100 nM | ≤ 100 nM | ≤ 100 nM
12 | CNCCOc1cc2nccc(Oc3c(F)cc(NC(=O)c4c(OC)ccnc4F)cc3F)c2cc1OC [Example 4, N-(3,5-difluoro-4-((6-methoxy-7-(2-(methylamino)ethoxy)quinolin-4-yl)oxy)phenyl)-2-fluoro-4-methoxypyridine-3-carboxamide] | ≤ 100 nM | ≤ 100 nM | 100 to 1000 nM | 100 to 1000 nM
13 | COCCOc1cc2nccc(Oc3c(F)cc(NC(=O)c4cnccc4OC4CC4)cc3F)c2cc1OC [Example 106, 4-cyclopropoxy-N-(3,5-difluoro-4-{[6-methoxy-7-(2-methoxyethoxy)quinolin-4-yl]oxy}phenyl)pyridine-3-carboxamide] | ≤ 100 nM | ≤ 100 nM | ≤ 100 nM | ≤ 100 nM
14 | COc1cc2nccc(Oc3c(F)cc(NC(=O)c4cnccc4OCCO)cc3F)c2cc1OC [Example 95, N-{4-[(6,7-dimethoxyquinolin-4-yl)oxy]-3,5-difluorophenyl}-4-(2-hydroxyethoxy)pyridine-3-carboxamide] | ≤ 100 nM | ≤ 100 nM | 100 to 1000 nM | 100 to 1000 nM
15 | COCCOc1ccc2c(Oc3c(F)cc(NC(=O)c4cnccc4OC)cc3F)ccnc2c1 [Example 42, N-(3,5-difluoro-4-{[7-(2-methoxyethoxy)quinolin-4-yl]oxy}phenyl)-4-methoxypyridine-3-carboxamide] | ≤ 100 nM | ≤ 100 nM | 100 to 1000 nM | ≤ 100 nM
16 | CNCCOc1cc2nccc(Oc3c(F)cc(NC(=O)c4cnc(C)nc4OC4CC4)cc3F)c2cc1OC [Example 114, 4-cyclopropoxy-N-[3,5-difluoro-4-({6-methoxy-7-[2-(methylamino)ethoxy]quinolin-4-yl}oxy)phenyl]-2-methylpyrimidine-5-carboxamide] | ≤ 100 nM | ≤ 100 nM | 100 to 1000 nM | 100 to 1000 nM
17 | CNCCOc1cc2nccc(Oc3c(F)cc(NC(=O)c4cnc(Cl)cc4OC)cc3F)c2cc1OC [Example 3, 6-chloro-N-(3,5-difluoro-4-((6-methoxy-7-(2-(methylamino)ethoxy)quinolin-4-yl)oxy)phenyl)-4-methoxypyridine-3-carboxamide] | ≤ 100 nM | ≤ 100 nM | ≤ 100 nM | 100 to 1000 nM
18 | CC(C)(O)COc1ccc2c(Oc3c(F)cc(NC(=O)c4cnccc4OC4CC4)cc3F)ccnc2c1 [Example 104, 4-cyclopropoxy-N-(3,5-difluoro-4-{[7-(2-hydroxy-2-methylpropoxy)quinolin-4-yl]oxy}phenyl)pyridine-3-carboxamide] | ≤ 100 nM | ≤ 100 nM | 1000 to 10000 nM | 100 to 1000 nM
19 | CCNCCOc1cc2nccc(Oc3c(F)cc(NC(=O)c4cnccc4OC4CC4)cc3F)c2cc1OC [Example 75, 4-cyclopropoxy-N-[4-({7-[2-(ethylamino)ethoxy]-6-methoxyquinolin-4-yl}oxy) -3,5-difluorophenyl]pyridine-3-carboxamide] | ≤ 100 nM | ≤ 100 nM | ≤ 100 nM | ≤ 100 nM
